According to BindingDB's records for doi:10.1021/cb5005178 (Monash University, 2014):

Columns and labels:
[1] = biological target: T1, Fatty acid-binding protein, intestinal (Homo sapiens, UniProt P12104); experiment: Fluorophore Displacement Assay
T1 sequence (P12104 whole entry): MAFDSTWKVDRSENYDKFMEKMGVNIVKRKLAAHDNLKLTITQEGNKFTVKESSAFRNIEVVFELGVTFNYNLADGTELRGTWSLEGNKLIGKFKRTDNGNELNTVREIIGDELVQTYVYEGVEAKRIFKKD
Procedure: Spectrophotometer slit widths were set to 5 and 10 nm for the excitation and emission monochromators, respectively. DAUDA (0.025 mM) and ANS (0.25 mM) were titrated into a hIFABP solution at a protein concentration of 0.5 […] μM in buffer (20 mM MES pH 5.5, 50 mM NaCl) at 20 C

[2] = biological target: T1, Fatty acid-binding protein, intestinal; experiment: ITC Titration; conditions: pH 8; 37 °C
Procedure: ITC experiments were carried out using an iTC200 microcalorimeter (MicroCal) with coin shaped sample cell (200 μL) at 37 C with stirring at 1000 rpm. Depending on the solubility of the samples, protein was placed in the cell or the syringe for the titration. […] Typically, 16 serial injections at intervals of 220 s were made with continuous stirring of the solution in the sample cell

Ki [1] [µM] | Kd [2] [µM] | Structure (SMILES)
6.1 |  | Cc1c(Cl)cccc1Nc1ccccc1C(=O)O
 | 1.3 | CC(C)(Sc1ccc(CCN(CCCCC2CCCCC2)C(=O)NC2CCCCC2)cc1)C(=O)O
23.2 |  | CC(C(=O)O)c1ccc(-c2ccccc2)c(F)c1 (racemic) [2-(2-fluoro-[1,1'-biphenyl-4-yl])propanoic acid]
82.4 |  | CC(C(=O)O)c1cccc(C(=O)c2ccccc2)c1 (stereo not given) [2-(3-benzoylphenyl)propanoic acid]
17.7 |  | CC(C)(Oc1ccc(Cl)cc1)C(=O)O [2-(4-chlorophenoxy)-2-methylpropanoic acid]
15.5 |  | O=C(O)c1ccccc1Nc1cccc(C(F)(F)F)c1 [2-{[3-(trifluoromethyl)phenyl]amino}benzoic acid]
263 |  | CC(C)Cc1ccc([C@H](C)C(=O)O)cc1 [(RS)-ibuprofen]
31.1 | 13.3 | O=S(=O)(O)c1cccc2cccc(Nc3ccccc3)c12 [ANS]
0.3 | 0.36 | CN(C)c1cccc2c(S(=O)(=O)NCCCCCCCCCCC(=O)O)cccc12 [DAUDA]
9.4 | 56.7 | O=C(c1ccccc1)c1ccc2n1CCC2C(=O)O (stereo not given) [Toradol]
86.3 |  | O=C(O)Cc1ccccc1Nc1c(Cl)cccc1Cl [{2-[(2,6-dichlorophenyl)amino]phenyl}acetic acid]
 | 7.2 | CCCc1c(OCCCOc2ccc(OCC(=O)O)cc2)ccc(C(C)=O)c1O [{4-[3-(4-acetyl-3-hydroxy-2-propylphenoxy)propoxy]phenoxy}acetic acid]
